Laboratory results: US20260191835A1, “COMBINATIONS COMPRISING A MENIN-MLL INHIBITOR AND AT LEAST ONE OTHER THERAPEUTIC AGENT” (JANSSEN PHARMACEUTICA NV, priority 2022, published 2026)

Test system: MOLM-13 tumors
Experiment: Efficacy (survival) in disseminated MOLM-13 (KMT2A-rearranged) model in NSG mice
Type: in vivo
Settings: NSG mice bearing established MOLM-13 tumors, vs vehicle; Azacitidine 2 mg/kg ip QD × 7; Compound 51 2 mg/kg po QD × 28; n = 10
Protocol: 4) Efficacy of Menin-MLL Inhibitor in Combination with Azacitidine in MOLM-13 (KMT2A-Rearranged) Model in NSG Mice
Compound 51 was formulated in purified pyrogen-free deionized water, pH 4.0 and prepared to reach a total volume of 8 mL/kg. Doses were adjusted by individual body weight each day. Working stocks of Compound 51 were prepared once per week for each study and stored at 25° C.
Female NSG (NOD.Cg-Prkdc^scid Il2rg^tm1Wjl/SzJ) mice were used when they were approximately 6 to 8 weeks of age and weighed approximately 25 g. All animals could acclimate and recover from any shipping-related stress for a minimum of 7 days prior to experimental use. […]
Animals were monitored daily for clinical signs related to either compound toxicity or tumor burden (i.e., hind limb paralysis, lethargy, etc.).
For survival assessment, results were plotted as the percentage survival against days post tumor implant. […] Median survival was determined utilizing Kaplan-Meier survival analysis. The percent increased life span (ILS) was calculated as: ((median survival day of treated group−median survival day of control group)/median survival day of control group)×100. […]
Survival and body weight data were graphically represented utilizing Prism (Version 9). Statistical significance for body weights was evaluated as described above. […]

CC(=O)N1CCC(CN2CC[C@@H](Cc3cn(-c4ccc(F)cc4C(=O)N(C)C(C)C)c4cncc(C)c34)C2)CC1 [Compound 51]
% ILS (increased life span): *5%
